{"source": "paper PMC7391767", "about": "“Molecular mechanisms underlying menthol binding and activation of TRPM8 ion channel” (Nature Communications, 2020)", "assay_type_in_all_cases": "cell-based", "key": {"wild-type TRPM8 [1]": {"biological_target": "T1, wild-type TRPM8 (Mus musculus, UniProt Q8R4D5)", "T1 construct": "expressed in transfected cells; host or cells: HEK293T", "assay": "open probability from noise analysis of macroscopic current and single-channel recordings", "conditions": "wild-type TRPM8; near saturating concentration (menthol 500 µM)", "experimental": "(§1) Patch-clamp recordings were performed with a HEKA EPC10 amplifier controlled by PatchMaster software (HEKA). Whole-cell recordings were performed at ±80 mV. Patch pipettes were prepared from borosilicate glass and fire-polished to resistance of ~4 MΩ. For whole-cell recording, serial resistance was compensated by 60%. For single-channel recordings, patch pipettes were fire-polished to a higher resistance of 6-to-10 MΩ and then recorded in the inside-out configuration. To maximize the chance of obtaining a patch with only one channel, single-channel recordings were performed about 8 h after transfection. A solution with 130 mM NaCl, 10 mM glucose, 0.2 mM EDTA, and 3 mM HEPES (pH 7.2) was used in both bath and pipette for either whole-cell or single-channel recordings. Membrane potential was clamped at +80 mV for single-channel recordings. Current was sampled at 10 kHz and filtered at 2.9 kHz. All recordings were performed at room temperature (22 °C) with the maximum variation of 1 °C.\nFrom single-channel recordings, the open probability (Po) was calculated after events detection with a hidden Markov approach in the software QuB[49] (http://www.qub.buffalo.edu/). A dead time of 0.32 ms was imposed. As a complementary approach, Po was also estimated from noise analysis[52] of whole-cell recordings. Briefly, the mean current amplitude (I), the squared deviations in current amplitude from the mean value (σ^2), and the single-channel current (i) were measured experimentally from a membrane patch of ion channels. Then the number of ion channels clamped in that patch (N) was determined as3 N=I^2/i⋅I−σ^2.\nThe maximum current when each of ion channel is at the open state with a Po of 1 is equal to i × N. Then the open probability was calculated as the ratio between the measured macroscopic current and the maximum current calculated by noise analysis. To estimate channel conductance, current amplitude was estimated from all-point histogram of single-channel recordings."}, "wild-type TRPM8 [2]": {"biological_target": "T1, wild-type TRPM8", "assay": "whole-cell patch-clamp recording of ligand activation", "conditions": "WT", "experimental": "Murine TRPM8 was used in this study. Point mutations were made by Fast Mutagenesis Kit V2 (SBS Genetech). Primers used to generate point mutations are summarized in Supplementary Table 2.\nCells were transiently transfected with cDNA constructs by Lipofectamine 3000 (Life Technologies) following the manufacturer’s protocol. Patch-clamp recordings were performed 1–2 days after transfection.\nas §1\n(§2) Ligands such as menthol and its analogs were perfused to membrane patch by a gravity-driven system (RSC-200, Bio-Logic). Bath and ligand solution were delivered through separate tubes to minimize the mixing of solutions. Patch pipette was placed in front of the perfusion tube outlet.\nData from whole-cell recordings were analyzed in Igor Pro version 6.1 (WaveMatrix). EC50 values were derived from fitting a Hill equation to the concentration–response relationship. […] To distinguish these possibilities, dissociation constant (Kd) for ligand binding was estimated assuming the following gating scheme:1 C0↔KdC1↔LO, where L is the equilibrium constant for the final closed-to-open transition."}, "TRPM8 L843I": {"biological_target": "T2, TRPM8 L843I (Mus musculus, UniProt Q8R4D5, L843I)", "T2 construct": "expressed in transfected cells; host or cells: HEK293T", "T2 sequence (Q8R4D5 whole entry L843I)": "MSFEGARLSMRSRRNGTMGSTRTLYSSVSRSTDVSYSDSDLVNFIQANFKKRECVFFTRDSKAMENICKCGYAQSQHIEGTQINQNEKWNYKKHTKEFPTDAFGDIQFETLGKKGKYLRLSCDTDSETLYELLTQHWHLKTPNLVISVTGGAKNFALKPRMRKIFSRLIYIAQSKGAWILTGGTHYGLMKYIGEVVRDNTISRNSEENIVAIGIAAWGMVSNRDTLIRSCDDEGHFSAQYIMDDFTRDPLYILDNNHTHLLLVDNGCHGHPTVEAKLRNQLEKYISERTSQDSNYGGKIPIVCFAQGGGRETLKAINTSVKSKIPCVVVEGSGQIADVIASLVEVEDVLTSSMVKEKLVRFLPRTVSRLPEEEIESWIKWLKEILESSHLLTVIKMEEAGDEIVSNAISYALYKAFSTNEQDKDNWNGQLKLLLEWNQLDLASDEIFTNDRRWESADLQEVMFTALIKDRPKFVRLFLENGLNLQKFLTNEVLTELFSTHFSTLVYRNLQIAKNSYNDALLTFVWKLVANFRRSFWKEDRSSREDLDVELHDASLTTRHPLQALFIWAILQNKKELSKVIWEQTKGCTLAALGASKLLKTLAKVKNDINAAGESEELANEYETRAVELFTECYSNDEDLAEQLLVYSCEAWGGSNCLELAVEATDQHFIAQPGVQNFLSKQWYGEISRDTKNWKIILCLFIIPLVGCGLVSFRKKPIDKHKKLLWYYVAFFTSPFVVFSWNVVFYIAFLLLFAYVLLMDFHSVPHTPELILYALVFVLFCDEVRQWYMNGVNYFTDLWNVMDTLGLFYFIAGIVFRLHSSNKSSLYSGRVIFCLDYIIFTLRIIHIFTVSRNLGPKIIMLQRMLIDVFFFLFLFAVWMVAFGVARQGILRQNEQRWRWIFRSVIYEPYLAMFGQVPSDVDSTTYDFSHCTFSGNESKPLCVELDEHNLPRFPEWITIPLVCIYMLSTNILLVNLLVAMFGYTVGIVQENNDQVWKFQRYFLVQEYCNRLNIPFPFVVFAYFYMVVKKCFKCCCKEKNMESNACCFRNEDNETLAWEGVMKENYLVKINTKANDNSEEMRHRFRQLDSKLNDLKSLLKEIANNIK", "assay": "whole-cell patch-clamp and thermodynamic mutant cycle analysis", "experimental": "(§3) Murine TRPM8 was used in this study. Point mutations were made by Fast Mutagenesis Kit V2 (SBS Genetech). Primers used to generate point mutations are summarized in Supplementary Table 2. All mutations were confirmed by sequencing.\n(§4) HEK293T cells purchased from Kunming Cell Bank, Kunming Institute of Zoology, Chinese Academy of Sciences (ATCC, CRL-3216) were cultured in Dulbecco’s modified Eagle’s medium supplemented with 20 mM L-glutamine and 10% fetal bovine serum. Cells were transiently transfected with cDNA constructs by Lipofectamine 3000 (Life Technologies) following the manufacturer’s protocol. Patch-clamp recordings were performed 1–2 days after transfection.\nas §1, §2\n(§5) Data from whole-cell recordings were analyzed in Igor Pro version 6.1 (WaveMatrix). EC50 values were derived from fitting a Hill equation to the concentration–response relationship. Changes in EC50 by point mutation may be caused by either perturbation of ligand bind or channel gating or both. To distinguish these possibilities, dissociation constant (Kd) for ligand binding was estimated assuming the following gating scheme:1 C0↔KdC1↔LO, where L is the equilibrium constant for the final closed-to-open transition.\n(§6) To perform thermodynamic cycle analysis, Kd values of four channel-ligand combinations (WT channel, menthol: Kd _1; Mutant channel, menthol: Kd _2; WT channel, menthol analog: Kd _3; Mutant channel, menthol analog: Kd _4) were determined separately. The strength of coupling was determined by the coupling energy (kT multiplied by LnΩ, where k is the Boltzmann constant and T is temperature in Kelvin). LnΩ was calculated by Eq. (2) as[51]2 LnΩ=LnKd_1⋅Kd_4/Kd_2⋅Kd_3."}, "TRPM8 L843V": {"biological_target": "T3, TRPM8 L843V (Mus musculus, UniProt Q8R4D5, L843V)", "T3 construct": "expressed in transfected cells; host or cells: HEK293T", "T3 sequence (Q8R4D5 whole entry L843V)": "as the sequence (Q8R4D5 whole entry L843I) above, with I843V counted along it", "assay": "whole-cell patch-clamp and thermodynamic mutant cycle analysis", "experimental": "as §3, §4, §1, §2, §5, §6"}, "TRPM8 F839A": {"biological_target": "T4, TRPM8 F839A (Mus musculus, UniProt Q8R4D5, F839A)", "T4 construct": "expressed in transfected cells; host or cells: HEK293T", "T4 sequence (Q8R4D5 whole entry F839A)": "as the sequence (Q8R4D5 whole entry L843I) above, with F839A, I843L counted along it", "assay": "whole-cell patch-clamp and thermodynamic mutant cycle analysis", "experimental": "as §3, §4, §1, §2, §5, §6"}, "TRPM8 L843A": {"biological_target": "T5, TRPM8 L843A (Mus musculus, UniProt Q8R4D5, L843A)", "T5 construct": "expressed in transfected cells; host or cells: HEK293T", "T5 sequence (Q8R4D5 whole entry L843A)": "as the sequence (Q8R4D5 whole entry L843I) above, with I843A counted along it", "assay": "whole-cell patch-clamp and thermodynamic mutant cycle analysis", "experimental": "as §3, §4, §1, §2, §5, §6"}, "TRPM8 V775A": {"biological_target": "T6, TRPM8 V775A (Mus musculus, UniProt Q8R4D5, V775A)", "T6 construct": "expressed in transfected cells; host or cells: HEK293T", "T6 sequence (Q8R4D5 whole entry V775A)": "as the sequence (Q8R4D5 whole entry L843I) above, with V775A, I843L counted along it", "assay": "whole-cell patch-clamp and thermodynamic mutant cycle analysis", "experimental": "as §3, §4, §1, §2, §5, §6"}, "TRPM8 I846V": {"biological_target": "T7, TRPM8 I846V (Mus musculus, UniProt Q8R4D5, I846V)", "T7 construct": "expressed in transfected cells; host or cells: HEK293T", "T7 sequence (Q8R4D5 whole entry I846V)": "as the sequence (Q8R4D5 whole entry L843I) above, with I843L, I846V counted along it", "assay": "whole-cell patch-clamp and thermodynamic mutant cycle analysis", "experimental": "as §3, §4, §1, §2, §5, §6"}, "TRPM8 Y745F": {"biological_target": "T8, TRPM8 Y745F (Mus musculus, UniProt Q8R4D5, Y745F)", "T8 construct": "expressed in transfected cells; host or cells: HEK293T", "T8 sequence (Q8R4D5 whole entry Y745F)": "as the sequence (Q8R4D5 whole entry L843I) above, with Y745F, I843L counted along it", "assay": "whole-cell patch-clamp and thermodynamic mutant cycle analysis", "experimental": "as §3, §4, §1, §2, §5, §6"}, "[3]": {"conditions": "mutant cycle menthol vs labelled analog"}}, "note": "Several values for one entry are separate records, joined by “and”; a condition that tells them apart may be missing. Identical values can stand only once. Like-named read-outs stand apart in the source and are kept apart here."}
{"smiles": "CC1CCCC(O)C1", "note": "(stereo not shown) [3-methylcyclohexanol]", "values": [{"measurement": "maximum open probability (Po max)", "setting": "wild-type TRPM8 [1]", "result": "much reduced"}, {"measurement": "L (equilibrium constant between closed and open states upon ligand binding), Ave", "setting": "wild-type TRPM8 [2]", "result": 0.1737}, {"measurement": "L, single recording", "setting": "wild-type TRPM8 [2]", "result": "0.1532 and 0.192 and 0.1757"}, {"measurement": "Ratio X1 (Kd menthol / Kd labelled analog)", "setting": "wild-type TRPM8 [2]", "result": 1.53}, {"measurement": "concentration–response curve value, ave", "setting": "wild-type TRPM8 [2]; 100 microM", "result": 0.03758}, {"measurement": "concentration–response curve value, single recording", "setting": "wild-type TRPM8 [2]; 100 microM", "result": 0.03758}, {"measurement": "concentration–response curve value, ave", "setting": "wild-type TRPM8 [2]; 500 microM", "result": 0.06444}, {"measurement": "concentration–response curve value, single recording", "setting": "wild-type TRPM8 [2]; 500 microM", "result": "0.0748 and 0.0637 and 0.05481"}, {"measurement": "concentration–response curve value, ave", "setting": "wild-type TRPM8 [2]; 1000 microM", "result": 0.104}, {"measurement": "concentration–response curve value, single recording", "setting": "wild-type TRPM8 [2]; 1000 microM", "result": "0.09939 and 0.1207 and 0.09185"}, {"measurement": "concentration–response curve value, ave", "setting": "wild-type TRPM8 [2]; 5000 microM", "result": 0.1359}, {"measurement": "concentration–response curve value, single recording", "setting": "wild-type TRPM8 [2]; 5000 microM", "result": "0.1092 and 0.1503 and 0.1483"}, {"measurement": "concentration–response curve value, ave", "setting": "wild-type TRPM8 [2]; 10000 microM", "result": 0.1449}, {"measurement": "concentration–response curve value, single recording", "setting": "wild-type TRPM8 [2]; 10000 microM", "result": "0.1156 and 0.169 and 0.1502"}, {"measurement": "Kd", "setting": "wild-type TRPM8 [2]; calculated from concentration–response curves (EC50 and Po max), read-out: Kd, Ave", "result": 631, "unit": "µM"}, {"measurement": "Kd", "setting": "wild-type TRPM8 [2]; read-out: Kd, single recording", "result": "270 µM and 723 µM and 899 µM"}, {"measurement": "Ratio X2 (Kd menthol / Kd labelled analog)", "setting": "TRPM8 L843I", "result": 0.32}, {"measurement": "Omega(X1/X2)", "setting": "TRPM8 L843I; menthol vs labelled analog", "result": 4.84}, {"measurement": "Coupling Energy", "setting": "TRPM8 L843I; [3]", "result": 1.58, "unit": "kT"}, {"measurement": "Ratio X2 (Kd menthol / Kd labelled analog)", "setting": "TRPM8 L843V", "result": 1.21}, {"measurement": "Omega(X1/X2)", "setting": "TRPM8 L843V; menthol vs labelled analog", "result": 1.27}, {"measurement": "Coupling Energy", "setting": "TRPM8 L843V; [3]", "result": 0.24, "unit": "kT"}, {"measurement": "Ratio X2 (Kd menthol / Kd labelled analog)", "setting": "TRPM8 F839A", "result": 0.34}, {"measurement": "Omega(X1/X2)", "setting": "TRPM8 F839A; menthol vs labelled analog", "result": 4.45}, {"measurement": "Coupling Energy", "setting": "TRPM8 F839A; [3]", "result": 1.49, "unit": "kT"}, {"measurement": "Ratio X2 (Kd menthol / Kd labelled analog)", "setting": "TRPM8 L843A", "result": 10.91}, {"measurement": "Omega(X1/X2)", "setting": "TRPM8 L843A; menthol vs labelled analog", "result": 0.14}, {"measurement": "Coupling Energy", "setting": "TRPM8 L843A; [3]", "result": 1.96, "unit": "kT"}, {"measurement": "Ratio X2 (Kd menthol / Kd labelled analog)", "setting": "TRPM8 V775A", "result": 3.60}, {"measurement": "Omega(X1/X2)", "setting": "TRPM8 V775A; menthol vs labelled analog", "result": 0.43}, {"measurement": "Coupling Energy", "setting": "TRPM8 V775A; [3]", "result": 0.86, "unit": "kT"}, {"measurement": "L (equilibrium constant between closed and open states upon ligand binding), Ave", "setting": "TRPM8 I846V", "result": 5.486}, {"measurement": "Ratio X2 (Kd menthol / Kd labelled analog)", "setting": "TRPM8 I846V", "result": 0.0226}, {"measurement": "concentration–response curve value, ave", "setting": "TRPM8 I846V; 100 microM", "result": 0.2999}, {"measurement": "concentration–response curve value, single recording", "setting": "TRPM8 I846V; 100 microM", "result": "0.4 and 0.341 and 0.2563 and 0.2026"}, {"measurement": "concentration–response curve value, ave", "setting": "TRPM8 I846V; 500 microM", "result": 0.4287}, {"measurement": "concentration–response curve value, single recording", "setting": "TRPM8 I846V; 500 microM", "result": "0.5097 and 0.4021 and 0.4664 and 0.3363"}, {"measurement": "concentration–response curve value, ave", "setting": "TRPM8 I846V; 5000 microM", "result": 0.6797}, {"measurement": "concentration–response curve value, single recording", "setting": "TRPM8 I846V; 5000 microM", "result": "0.6614 and 0.7654 and 0.6405 and 0.6515"}, {"measurement": "concentration–response curve value, ave", "setting": "TRPM8 I846V; 10000 microM", "result": 0.686}, {"measurement": "concentration–response curve value, single recording", "setting": "TRPM8 I846V; 10000 microM", "result": "0.6689 and 0.7334 and 0.6291 and 0.7125"}, {"measurement": "Kd", "setting": "TRPM8 I846V; calculated from concentration–response curves, read-out: Kd, Ave", "result": 5290, "unit": "µM"}, {"measurement": "concentration–response curve value, ave", "setting": "TRPM8 I846V; concentration cell empty", "result": 0.07916}, {"measurement": "Omega(X1/X2)", "setting": "TRPM8 I846V; menthol vs labelled analog", "result": 67.65}, {"measurement": "Coupling Energy", "setting": "TRPM8 I846V; [3]", "result": 4.21, "unit": "kT"}, {"measurement": "Kd", "setting": "TRPM8 I846V; read-out: Kd, single recording", "result": "4560 µM and 1600 µM and 2660 µM and 12400 µM"}, {"measurement": "Ratio X2 (Kd menthol / Kd labelled analog)", "setting": "TRPM8 Y745F", "result": 5.57}, {"measurement": "Omega(X1/X2)", "setting": "TRPM8 Y745F; menthol vs labelled analog", "result": 0.28}, {"measurement": "Coupling Energy", "setting": "TRPM8 Y745F; [3]", "result": 1.29, "unit": "kT"}]}
